Test results published in patent US7300764B2, “Method for identifying agonists and antagonists of the GPR45-like/GPR63 receptor” (Sanofi-Aventis Deutschland GmbH, priority 2002, dated 2007).

How the values were obtained:
[1] = biological target: T1, GPR45 like/GPR63 receptor (Homo sapiens, UniProt Q9BZJ6); assay: FLIPR assay, stimulation of intracellular Ca2+ release in transfected CHO cells; assay type: cell-based; design: The PCR fragment with a length of 1,260 base pairs which was formed by the PCR described above was incorporated; expressed in transfected cells; host or cells: CHO-K1 cells, transient transfection with Lipofectamine; conditions: final concentration of 1 μM; CHO cells expressing GPR45 like/GPR63 receptor and G protein α subunit delta 6qi4mgr
T1 sequence (Q9BZJ6 whole entry, the tested form may be a part): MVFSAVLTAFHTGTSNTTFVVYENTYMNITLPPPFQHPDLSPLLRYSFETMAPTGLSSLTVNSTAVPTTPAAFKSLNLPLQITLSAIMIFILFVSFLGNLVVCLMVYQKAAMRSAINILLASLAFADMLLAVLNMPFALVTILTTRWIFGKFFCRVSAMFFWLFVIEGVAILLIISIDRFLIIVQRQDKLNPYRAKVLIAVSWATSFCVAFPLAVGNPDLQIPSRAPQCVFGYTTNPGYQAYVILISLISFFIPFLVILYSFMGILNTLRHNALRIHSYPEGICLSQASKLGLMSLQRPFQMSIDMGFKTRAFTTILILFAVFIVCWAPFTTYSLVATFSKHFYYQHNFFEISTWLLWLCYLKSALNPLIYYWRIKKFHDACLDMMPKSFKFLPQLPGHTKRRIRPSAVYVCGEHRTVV
Procedure: CHO-K1 cells were cultivated in basal Iscove's medium with further additions. Iscove's medium is commercially available from, for example, Biochrom, Berlin. The composition was described for the first time in N. N. Iscove and F. Melchers, Journal of Experimental Medicine 147, 923-933 (1978). 10% fetal bovine serum, 10 000 U/ml-10 000 μg/ml penicillin-streptomycin, gentamycin, and 2 mM L-glutamine were used as further additions to Iscove's medium. The cells were incubated at 37° C. with a 5% CO2 atmosphere.
About 2×10^5 CHO-K1 cells were seeded in 35 mm dishes for the transient transfection. After further incubation for about 24 hours and with the cells at about 50-80% confluence, the cells were transiently transfected with 1 μg of the plasmid DNA construct with the assistance of Lipofectamine (Gibco).
About 16 to 18 hours after the transfection, the CHO cells were put in an amount of about 80,000 cells per well in 96-well plates and incubated further for about 18-24 hours. […]
After the last washing step, 100 μl were left on the cells in each well. […] A 60 μM solution was kept ready on a 96-well microtiter plate. […]
The fluorescence was measured by a Fluorometric Imaging Plate Reader (FLIPR®, Molecular Devices, Sunnyvale, Calif.) for 1 min in intervals lasting 1 sec and for a further 2 min in 3-second intervals. […]

[2] = biological target: T1, GPR45 like/GPR63 receptor; assay: Cell growth assay in transfected CHO cells; assay type: cell-based; design: The PCR fragment with a length of 1,260 base pairs which was formed by the PCR described above was incorporated; expressed in transfected cells; host or cells: CHO cells, transient transfection with Lipofectamine; conditions: 1 μM S1P, 48 hours, Iscove's medium with 10% dialyzed fetal calf serum, average of 2 independent tests
Procedure: CHO cells were put in an amount of 8×10^4 cells into 35 mm plates. After 32 hours, the cells were transfected with 1 μg of the plasmid construct using Lipofectamine (Gibco). After a further 13 hours (time 0), the cells were washed with PBS and incubated in Iscove's medium which contained 10% dialyzed fetal calf serum for 48 hours (time 48), specifically in the presence or absence of 1 μM S1P (sphingosine 1-phosphate).
The number of cells at time 0 and time 48 was determined by counting. This was done by first treating the cells with trypsin and then suspending them in 1 ml of Iscove's. An amount of 100 μl of these cells was diluted in 10 ml of buffer and counted in a cell counter, e.g. in the Casy Cellcounter TT (Cell Counter und Analysesystem, Schärfe, Reutlingen).
An amount of 8×10^4 CHO cells was seeded onto 35 mm plates. The cells were transfected after 32 hours with 1 μg of DNA of the vector construction. After 13 hours, the cells were washed once with PBS and incubated in Iscove's medium containing 10% dialyzed fetal calf serum in the presence or absence of 1 μM S1P for a further 48 hours.

more cells (cell number vs absence of S1P) [2]	Compound	Ca^2+ influx [1]
–	CCCCCCCCCCCCCCC[C@@H](O)[C@@H](N)COP(=O)(O)O [DHS1P, dihydrosphingosine 1-phosphate]	led to a measurable Ca^2+ influx
about 20%	CCCCCCCCCCCCC/C=C/[C@@H](O)[C@@H](N)COP(=O)(O)O [S1P, sphingosine 1-phosphate]	led to a measurable Ca^2+ influx
